Experimental data from patent US10435752B2, “Use of ADCY3 for diagnosis and treatment of gastric cancer” (NATIONAL CANCER CENTER, priority 2012, dated 2019).

Experiments:
ADCY3 promoter = ADCY3 promoter methylation after in vitro demethylation (bisulfite sequencing); assay type: cell-based, human; settings: KATO III cells, 10 μM, 96 hrs, FIG. 5D
Procedure: To assay the methylation status of the ADCY3 promoter, genomic DNA was bisulfite-treated using the EZ DNA Methylation-Gold Kit (ZYMO Research, USA), and treated with methylation-specific PCR primers (Table 3) that were designed using EpiDesigner (Sequenom, USA).
A methylation-specific high-resolution melting assay (MS-HRM) was performed using 10 ng of bisulfite-treated genomic DNA and ResoLight dye in a LightCycler 480 (Roche Applied Science) according to the manufacturer's protocol. Results were analyzed using Gene Scanning software (Roche). For bisulfite sequencing, the promoter region containing 39 CpG sites was amplified from the genomic DNA of bisulfite-treated gastric cells, cloned into the TOPO-TA vector (Invitrogen), and sequenced using the 3730xl DNA analyzer (Applied Biosystems).
To investigate the effects of promoter demethylation on ADCY3 expression, KATO III cells were incubated for 96 hrs in a culture medium with or without 5-Aza-2′-deoxycytidine (5-Aza-dC; Sigma Aldrich, USA) at a final concentration of 10 μM, and the mRNA level of ADCY3 was measured using qRT-PCR.

ADCY3 = ADCY3 mRNA level by qRT-PCR after demethylation; assay type: cell-based, human; settings: KATO III cells, 10 μM, 96 hrs, relative to the negative control, FIG. 5E
Procedure: qRT-PCR reactions were performed using a LightCycler 480 (Roche Applied Science, UK) and ABI 7500 Fast Real-Time PCR system (Applied Biosystems). Results were quantified either by using β-actin for normalization (relative quantification), or by standard curve-based absolute quantification. To investigate the effects of promoter demethylation on ADCY3 expression, KATO III cells were incubated for 96 hrs in a culture medium with or without 5-Aza-2′-deoxycytidine (5-Aza-dC; Sigma Aldrich, USA) at a final concentration of 10 μM, and the mRNA level of ADCY3 was measured using qRT-PCR.

`Nc1ncn([C@H]2C[C@H](O)[C@@H](CO)O2)c(=O)n1` [5-Aza-dC, 5-Aza-2′-deoxycytidine] was tested, and the “methylation of CpG sites in the ADCY3 promoter” value (ADCY3 promoter) was “demethylation of CpG sites” and the “ADCY3 mRNA expression level” value (ADCY3) was “recovery of ADCY3 mRNA expression level”.
